Results published in patent US20210038577A1, “THIOREDOXIN REDUCTASE INHIBITORS FOR USE IN THE TREATMENT OF CANCER” (Cinda Pharma AB, priority 2018, published 2021).

Tested on: 4T1-luc2 murine tumor cells
Test: 4T1-luc2 tumors in mammary fat pad of immunocompetent BALB/c mice
Assay type: in vivo
Conditions: 5 mg/kg 5/2 for 15 days, bioluminescence
Experimental: Female BALB/c immunocompetent mice were implanted with 1×10^5 4T1-luc2 murine tumor cells into the mammary fat pad. Upon growth of the tumors between 60-90 mm^3 the animals were selected for imaging. Mice were randomized and enrolled for treatment based on imaging flux values. Mice were treated once daily with 5 mg/kg of either OT-1096 or vehicle control using a 5/2 (five days on, two days off) dosing protocol. Upon days 1, 8, and 15 whole body imaging was performed on the mice to follow tumor cell luminescence. Analysis consists of primary tumor luminescence in mice. Each mouse was normalized to its own baseline luminescence from day 1. […] Data is represented as mean±SEM. Statistical significance (p<0.05) was determined using a Mann-Whitney test. The relative luminescence flux for mice treated with OT-1096 was significant compared to vehicle at day 15.
Athymic nude mice were inoculated orthotopically with 5×10^6 MDA-MB-231 breast cancer cells into the mammary fat pad, and randomized for treatment when tumors reached an average volume of 80-120 mm^3 (N=12 in each group). […] Xenograft tumor volume was assessed using caliper measurements for 25 days. […] Xenograft tumor volume was assessed using caliper measurements for 25 days. […] Statistical significance (p<0.05) was determined using a Two-way repeated measures ANOVA with Sidak's multiple comparison test. […]

## CCCCCCCCS(=O)(=O)c1nc(OC)ccc1[N+](=O)[O-] [OT-1096, 6-methoxy-3-nitro-2-(octylsulfonyl)pyridine]
  % TGI: 54%
